Data from patent US5616593A, “Compositions containing piperine” (priority 1993, dated 1997).

Columns and labels:
serum proteins = assay: Binding of the serum proteins; parameters: species or system human; conditions: combined with drug
[1] = Intrinsic pharmaceutical or medicinal properties of piperine; conditions: piperine alone
[2] = combined with known anti-tuberculosis and/or anti-leprosy drugs; cited from earlier work
[3] = Absorption of certain drugs through gastro-intestinal membranes; parameters: species or system human; conditions: through membranes of gastro-intestinal tract
[4] = cited from earlier work
[5] = test system: natural immune mechanism of the body; assay: Stimulation of natural immune mechanism / antibody production; parameters: species or system human
[6] = Retention of certain drugs in the body; parameters: species or system human; conditions: combined with piperine
[7] = Clinical trial comparing bio-availability of two pentazocine formulations (with and without piperine); assay type: in vivo, human (healthy volunteers); conditions: with vs without piperine; pentazocine 25 mg, piperine 5 mg, hard gelatin capsules; 12 healthy volunteers
Protocol: Pentazocine -- -- 25 mg.
Dosage Form: Hard gelatin capsules.
Both pentazocine and piperine were milled and were then blended together. With repeated sieving, both the components were mixed to a homogenous mixture. Five samples of mixtures were randomly selected and their homogenecity was confirmed by reproducible analysis. With the help of hand-operated capsule filling machine, the formulation was encapsulated in hard gelatin capsule.
A clinical trial was conducted in 12 healthy volunteers in order to compare the bio-availability of two formulations containing pentazocine (with and without piperine).

[8] = Clinical study comparing bio-availability of two amlodipine formulations (with and without piperine); assay type: in vivo, human (healthy volunteers); conditions: with vs without piperine; amlodipine 10 mg, piperine 5 mg, hard gelatin capsules; 12 healthy volunteers
Protocol: Dosage Form: Hard gelatin capsules
Amlodipine and piperine were milled. The two components were blended together.
The homogenecity of five random samples of the mixture was confirmed from reproducible analysis. The formulation was then encapsulated in hard gelatin capsule in hand-operated capsule filling machine.
To compare the bio-availability of two formulations containing amlodipine (with and without piperine) a clinical study was conducted in 12 healthy volunteers.

Which “binding of the serum proteins” value (serum proteins) does the source give for `O=C(/C=C/C=C/c1ccc2c(c1)OCO2)N1CCCCC1` [Piperine] here?
The value was “increase the binding of the serum proteins”.

And the “pharmaceutical or medicinal properties of piperine as such” value [1]?
The value was “does not have any pharmaceutical or medicinal properties”.

And the “therapeutic efficacy of anti-tuberculosis and/or anti-leprosy drugs” value [2]?
The value was “increased therapeutic efficacy”.

What about the “absorption of certain drugs” value [3] of the same compound?
The value was “increase the absorption of certain drugs”.

What about the “solubility in organic solvents” value ([4]; benzene, chloroform, ether, ethyl acetate, dichloromethane, alcohol, acetic acid) of the same compound?
Its value is “soluble in benzene, chloroform, ether, ethyl acetate, dichloromethane, alcohol, acetic acid”.

What about the “solubility in water and petroleum ether” value ([4]; water, petroleum ether) of the same compound?
Its value is “insoluble in water, and petroleum ether”.

And the “stimulation of natural immune mechanism, production of antibodies against microbial infections” value [5]?
The value was “stimulate the natural immune mechanism of the body so as to enhance the production of antibodies against microbial infections”.

What about the “retention of certain drugs in the human body” value [6] of the same compound?
The value was “retain certain drugs when combined with it in the human body for a longer period of time”.

Which “blood levels of the active ingredient pentazocine” value [7] does the source give for `CC(C)=CCN1CCC2(C)c3cc(O)ccc3CC1C2C` (stereo not shown) [pentazocine] here?
The value was “increased blood levels”.

For `CCOC(=O)C1=C(COCCN)NC(C)=C(C(=O)OC)C1c1ccccc1Cl` (stereo not shown) [Amlodipine], which “blood levels of the active ingredient amlodipine” value [8] is on record?
Its value is “increased blood levels”.
